Assay results published in patent US11957687B2 (REGENERON PHARMACEUTICALS, INC., priority 2019, dated 2024).
pIC50: −log10 of the molar value. Where two headings read alike, the source gives them in different places.

Columns and labels:
HSD17B2 = HSD17B2 (Homo sapiens (Human), UniProt P37059); assay: HSD17B2 enzymatic blocking assay; format: biochemical; conditions: 1.8 μM Estradiol, 650 μM NAD; read-out: Inhibition of HSD17B2 IC50
Method in brief: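 Mammalian-expressed enzyme at 2 ng/μL in 50 mM Tris-HCl pH 7.5 with detergents/BSA, preincubated 15 min at 20° C. with compound (10-point titration). Reaction with 1.8 μM estradiol and 650 μM NAD ran 45 min at 20° C.; NADH measured by NADH-Glo luminescence and IC50 derived.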

[1] = Microsome stability assay, human liver microsomes; format: in vitro ADME; conditions: 1 μM compound, 0.5 mg/mL microsomal protein; for microsomal CLint at 1 h, 1 µM / half-life at 1 h, 1 µM / microsomal CLint at 1 μM / half-life at 1 μM: human, human liver microsomes, pooled, NADPH, 37° C.; for microsomal CLint at 1 h, 1 µM / microsomal CLint at 1 μM: read-out: Microsome Stability Human liver microsomes Cl; for half-life at 1 h, 1 µM / half-life at 1 μM: read-out: Microsome Stability Human liver microsomes T½
Method in brief: (§1)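 Compound at 1 μM incubated at 37° C with pooled human or mouse liver microsomes (0.5 mg/mL protein) plus NADPH regenerating system, sampled at 0–60 min; a 60-min no-NADPH incubation also included. Single replicate; LC/MS/MS disappearance from analyte/internal standard peak area ratios, without standard curve.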

HSD17B1 = HSD17B1 (Homo sapiens (Human), UniProt P14061); assay: HSD17B1 enzymatic blocking assay; format: biochemical; conditions: 25 μM Estradiol, 500 μM NAD; read-out: Inhibition of HSD17B1 IC50
HSD17B1, sequence (P14061 other isoform, or with tags, fused parts or gaps): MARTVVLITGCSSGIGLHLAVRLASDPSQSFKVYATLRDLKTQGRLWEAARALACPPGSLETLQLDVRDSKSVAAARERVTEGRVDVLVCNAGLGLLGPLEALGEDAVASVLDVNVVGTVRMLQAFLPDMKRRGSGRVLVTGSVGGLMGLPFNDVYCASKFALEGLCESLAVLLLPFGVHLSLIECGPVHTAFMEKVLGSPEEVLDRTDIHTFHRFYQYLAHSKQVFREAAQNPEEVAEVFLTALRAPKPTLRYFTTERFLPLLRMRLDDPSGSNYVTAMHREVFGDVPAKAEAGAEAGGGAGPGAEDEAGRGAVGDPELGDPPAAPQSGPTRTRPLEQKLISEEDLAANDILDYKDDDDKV
Description: To screen compounds of the disclosure for their ability to block HSD17B1 function, an enzymatic blocking assay was performed. For the assay, HSD17B1 activity was measured by detecting NADH formation from oxidation of Estradiol using a NADH Glo luminescence assay (Promega, #Cat. No. G9062). […] Compounds were incubated with the enzyme for 30 minutes at room temperature. […] DMSO at a concentration of 0.5% was used as a negative control and a ‘no substrate’ control was used a positive control in the assay. Detection reagent was then added as per manufacturer's instructions, and the plate was subsequently incubated in the dark for 1 hour at room temperature, NADH generated was detected in the luminescence mode on the Envision Perkin Elmer plate reader. The IC50 values were determined using Dotmatics analysis software.

HSD17B13 = HSD17B13 (Homo sapiens (Human), UniProt Q7Z5P4); assay: HSD17B13 enzymatic inhibition assay (150 nM or 50 nM HSD17B13); format: biochemical
HSD17B13, sequence (Q7Z5P4 other isoform, or with tags, fused parts or gaps): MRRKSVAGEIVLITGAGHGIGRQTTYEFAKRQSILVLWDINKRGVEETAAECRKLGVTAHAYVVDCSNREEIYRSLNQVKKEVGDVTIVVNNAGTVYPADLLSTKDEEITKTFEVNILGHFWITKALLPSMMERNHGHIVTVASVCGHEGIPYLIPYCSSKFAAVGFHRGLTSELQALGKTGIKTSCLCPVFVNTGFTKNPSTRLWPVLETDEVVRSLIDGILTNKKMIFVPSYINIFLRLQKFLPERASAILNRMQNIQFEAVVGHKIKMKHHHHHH

[2] = Microsome stability assay, mouse liver microsomes; format: in vitro ADME; conditions: 1 μM compound, 0.5 mg/mL microsomal protein; for microsomal CLint at 1 h, 1 µM / half-life at 1 h, 1 µM / microsomal CLint at 1 μM / half-life at 1 μM: mouse, mouse liver microsomes, pooled, NADPH, 37° C.; for microsomal CLint at 1 h, 1 µM / microsomal CLint at 1 μM: read-out: Microsome Stability Mouse liver microsomes Cl; for half-life at 1 h, 1 µM / half-life at 1 μM: read-out: Microsome Stability Mouse liver microsomes T½
Method in brief: as §1

[3] = 50 nM HSD17B13, read-out: Inhibition of 50 nM of HSD17B13 IC50

HSD17B2, sequence (P37059 other isoform, or with tags, fused parts or gaps): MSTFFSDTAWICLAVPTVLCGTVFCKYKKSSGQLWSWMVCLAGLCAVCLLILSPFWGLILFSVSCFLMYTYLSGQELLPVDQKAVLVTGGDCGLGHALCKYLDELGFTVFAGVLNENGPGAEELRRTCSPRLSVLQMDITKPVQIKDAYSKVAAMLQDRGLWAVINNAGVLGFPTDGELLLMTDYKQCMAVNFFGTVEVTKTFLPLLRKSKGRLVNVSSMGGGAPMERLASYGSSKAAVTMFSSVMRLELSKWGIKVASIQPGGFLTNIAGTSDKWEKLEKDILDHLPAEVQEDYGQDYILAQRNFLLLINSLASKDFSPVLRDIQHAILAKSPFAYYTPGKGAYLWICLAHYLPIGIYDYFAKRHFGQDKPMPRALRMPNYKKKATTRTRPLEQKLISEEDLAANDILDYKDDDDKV

Structure (SMILES)	pIC50 (HSD17B2)	Microsome Stability Human liver microsomes % Remaining @60 min [1]	microsomal CLint at 1 h, 1 µM [1]	half-life at 1 h, 1 µM [1]	pIC50 (HSD17B1)	pIC50 (HSD17B13; [3])	Microsome Stability Mouse liver microsomes % Remaining @60 min [2]	microsomal CLint at 1 h, 1 µM [2]	half-life at 1 h, 1 µM [2]	microsomal CLint at 1 μM [1]	half-life at 1 μM [1]	pIC50 (HSD17B13; 150 nM HSD17B13, read-out: Inhibition of 150 nM of HSD17B13 IC50)	microsomal CLint at 1 μM [2]	half-life at 1 μM [2]
O=C(NC(c1ccccc1)c1ccc(-c2ccccc2)cc1)c1ccc(C(F)(F)F)[nH]c1=O (stereo not drawn) [Compound 2, N-([1,1′-biphenyl]-4-yl(phenyl)methyl)-2-oxo-6-(trifluoromethyl)-1,2-dihydropyridine-3-carboxamide]	5.10	3.40%	110 µL/min/mg	0.21 h	< 4.52	6.13								
Cc1ccccc1C(NC(=O)c1ccc(C(F)(F)F)[nH]c1=O)c1ccccc1 (stereo not drawn) [Compound 5, N-(phenyl(o-tolyl)methyl)-2-oxo-6-(trifluoromethyl)-1,2-dihydropyridine-3-carboxamide]	4.81	16.00%	52 µL/min/mg	0.444 h	< 4.52	6.07								
O=C(NC(c1ccccc1)c1ccccc1Cl)c1ccc(C(F)(F)F)[nH]c1=O (stereo not drawn) [Compound 9, N-((2-chlorophenyl)(phenyl)methyl)-2-oxo-6-(trifluoromethyl)-1,2-dihydropyridine-3-carboxamide]	5.07	82.00%			< 4.52		16.80%	59.6 µL/min/mg	0.388 h	< 9.6 µL/min/mg	> 2.42 h			
Cc1ccc(C(NC(=O)c2ccc(C(F)(F)F)[nH]c2=O)c2ccc(C)cc2)cc1 [Compound 15, N-(di-p-tolylmethyl)-2-oxo-6-(trifluoromethyl)-1,2-dihydropyridine-3-carboxamide]	4.95	41.70%	30.2 µL/min/mg	0.765 h	< 4.52	6.59	5.60%	96.8 µL/min/mg	0.238 h					
O=C(NC(c1ccc(Cl)cc1)c1ccc(Cl)cc1)c1ccc(C(F)(F)F)[nH]c1=O [Compound 17, N-(bis(4-chlorophenyl)methyl)-2-oxo-6-(trifluoromethyl)-1,2-dihydropyridine-3-carboxamide]	4.96	97.60%			< 4.52	6.02	70.60%	10.2 µL/min/mg	2.27 h	< 9.6 µL/min/mg	> 2.42 h			
O=C(NC(c1ccccc1)c1ccc(Cl)cc1)c1ccc(C(F)(F)F)[nH]c1=O (stereo not drawn) [Compound 21, N-((4-chlorophenyl)(phenyl)methyl)-2-oxo-6-(trifluoromethyl)-1,2-dihydropyridine-3-carboxamide]	4.92	73.00%	10.8 µL/min/mg	2.14 h	< 4.52	6.12								
O=C(NC1c2ccccc2-c2ccccc21)c1ccc(C(F)(F)F)[nH]c1=O [Compound 25, N-(9H-fluoren-9-yl)-2-oxo-6-(trifluoromethyl)-1,2-dihydropyridine-3-carboxamide]	4.74	1.00%	265 µL/min/mg	0.087 h	< 4.52	6.28								
Cc1ccc(C(NC(=O)c2ccc(C(F)(F)F)[nH]c2=O)c2ccccc2)cc1 (stereo not drawn) [Compound 27, N-(phenyl(p-tolyl)methyl)-2-oxo-6-(trifluoromethyl)-1,2-dihydropyridine-3-carboxamide]	4.78	0.40%	511 µL/min/mg	0.0452 h	< 4.52	5.97						6.33		

The remaining lines, values ahead:

pIC50 (HSD17B2)	Microsome Stability Human liver microsomes % Remaining @60 min [1]	microsomal CLint at 1 h, 1 µM [1]	half-life at 1 h, 1 µM [1]	pIC50 (HSD17B1)	pIC50 (HSD17B13; [3])	Microsome Stability Mouse liver microsomes % Remaining @60 min [2]	microsomal CLint at 1 h, 1 µM [2]	half-life at 1 h, 1 µM [2]	microsomal CLint at 1 μM [1]	half-life at 1 μM [1]	pIC50 (HSD17B13; 150 nM HSD17B13, read-out: Inhibition of 150 nM of HSD17B13 IC50)	microsomal CLint at 1 μM [2]	half-life at 1 μM [2]	Structure (SMILES)
4.54	60.30%	14.8 µL/min/mg	1.56 h	< 4.52	6.46	83.80%						< 9.6 µL/min/mg	> 2.42 h	O=C(Nc1cccc2c(O)cccc12)c1ccc(C(F)(F)F)[nH]c1=O [Compound 223, N-(5-hydroxynaphthalen-1-yl)-2-oxo-6-(trifluoromethyl)-1,2-dihydropyridine-3-carboxamide]
4.55	60.40%	16.4 µL/min/mg	1.41 h	4.61	6.25	76.60%						< 9.6 µL/min/mg	> 2.42 h	Nc1cccc2c(NC(=O)c3ccc(C(F)(F)F)[nH]c3=O)cccc12 [Compound 228, N-(5-aminonaphthalen-1-yl)-2-oxo-6-(trifluoromethyl)-1,2-dihydropyridine-3-carboxamide]
4.39	83.40%			< 4.52	6.68	94.70%			< 9.6 µL/min/mg	> 2.42 h		< 9.6 µL/min/mg	> 2.42 h	O=C(NC1CCCc2c(O)cccc21)c1ccc(C(F)(F)F)[nH]c1=O (stereo not drawn) [Compound 230, N-(5-hydroxy-1,2,3,4-tetrahydronaphthalen-1-yl)-2-oxo-6-(trifluoromethyl)-1,2-dihydropyridine-3-carboxamide]
< 4.00	78%			4.80	7.52	64%	13.4 µL/min/mg	1.72 h	< 9.6 µL/min/mg	> 2.42 h				COc1ccc2c(c1)Sc1cc(OC)ccc1C2NC(=O)c1ccc(C(F)(F)F)[nH]c1=O [Compound 241, N-(3,6-dimethoxy-9H-thioxanthen-9-yl)-2-oxo-6-(trifluoromethyl)-1,2-dihydropyridine-3-carboxamide]
4.71	73.50%	11 µL/min/mg	2.1 h	5.23	8.00	28.60%	41.7 µL/min/mg	0.553 h						Cc1ccc2c(c1)Sc1cc(C)ccc1C2NC(=O)c1ccc(C(F)(F)F)[nH]c1=O [Compound 252, N-(3,6-dimethyl-9H-thioxanthen-9-yl)-2-oxo-6-(trifluoromethyl)-1,2-dihydropyridine-3-carboxamide]
4.49	24.50%	46.9 µL/min/mg	0.492 h	4.95	7.70	81.70%						< 9.6 µL/min/mg	> 2.42 h	Cc1ccc2c(c1)Oc1cc(C)ccc1C2NC(=O)c1cc(OC2CCOCC2)c(C(F)(F)F)[nH]c1=O [Compound 260, N-(3,6-dimethyl-9H-xanthen-9-yl)-2-oxo-5-((tetrahydro-2H-pyran-4-yl)oxy)-6-(trifluoromethyl)-1,2-dihydropyridine-3-carboxamide]
4.53				5.13	7.70									CCCc1cc(C(=O)NC2c3ccc(C)cc3Oc3cc(C)ccc32)c(=O)[nH]c1C(F)(F)F [Compound 521, N-(3,6-dimethyl-9H-xanthen-9-yl)-2-oxo-5-propyl-6-(trifluoromethyl)-1,2-dihydropyridine-3-carboxamide]
4.63				4.77	7.05									N#Cc1ccc2c(c1)Oc1ccccc1C2NC(=O)c1ccc(C(F)(F)F)[nH]c1=O (stereo not drawn) [Compound 528, N-(3-cyano-9H-xanthen-9-yl)-2-oxo-6-(trifluoromethyl)-1,2-dihydropyridine-3-carboxamide]
